Measured values as given in ChEMBL document CHEMBL3507680, “University of Dundee, Gates Library screen for HepG2 cell viability”.

Assay: Human HepG2 cell viability assay in 384 well format
Assay type: toxicity, cell-based
Parameters: dose 125 nL, time 70.5 hour; concentration not given beside the values
Details: HepG2 cells, read-out: Inhibition

Structure (SMILES)	cytotoxicity at 70.5 h [%]
O=C(NC1(C(=O)NC2CCCC2)CCCC1)c1ccc2[nH]ncc2c1	-8.68
Cc1cc(C)c(CNC(=O)NCc2nnc3n2CCCC3)c(=O)[nH]1	-13.4
CCN(CC)c1ccc(CNC(=O)C2(C)CCOCC2)cc1F	14.4
CC(C)c1nc(C2CCCN(c3cnc4ccccc4n3)C2)no1 (stereo not given)	-5.55
CCc1noc(CN(C)C(=O)COc2cc(Cl)cc(Cl)c2)n1	1.61
CC(C)c1nc(C2CCCN2c2cnc3cc(F)c(F)cc3n2)no1 (stereo not given)	-5.58
O=S1(=O)CCC(N(CCc2ccc3c(c2)CCO3)C2CC2)C1 (stereo not given)	-1.96
N#Cc1cccc(S(=O)(=O)NC(=O)COCC(F)(F)F)c1	0.976
CC(=O)NC1CCCN(C(=O)CNc2cccc(C)c2Cl)C1 (stereo not given)	21.2
COc1cc(C(=O)NCCc2cccc(C)c2)on1	2.66
COc1ccc(NC(=O)NCc2cccc(N(C)C)n2)c(Cl)c1	-8
CN(C)c1cccc(CNC(=O)Nc2cc(C#N)ccc2Cl)n1	-4.82
CCN(C)C1CCCc2nc(C)sc21 (stereo not given)	-5.07
CCC(C)NS(=O)(=O)Cc1cccc(NC(=O)c2cc[nH]c2C)c1 (stereo not given)	-5.4
O=C(NCCCn1ccnc1)c1csc2c1CCCC2	15.4
COCCNC(=O)CSc1nnc(OC(C)C)s1	-10.2
CC(C)OCCCNC(=O)CSc1nnc(OC(C)C)s1	-4.19
Cc1ccc(CN2C[C@H](OCC3CCN(C)CC3)[C@H]3COC[C@H]32)o1	4.22
CCN(C(=O)c1nc2c(s1)CCCN2C)C(C)C	-1.08
Cc1cccc(N2CC[C@H]3CO[C@H](CN(C)Cc4ccco4)[C@H]3C2)n1	-2.06
Cc1cccc(S(=O)(=O)N2C[C@@H]3C[C@@H](c4nnc(C)[nH]4)O[C@@H]3C2)c1	-1.93
CN(C)Cc1cncc2c1CCN(CC(=O)N(C)C)C2	10.2

Structure (SMILES)	cytotoxicity at 70.5 h [%]
CCc1cnc(N2C[C@@H]3[C@@H](C(=O)N(C)C)CCS(=O)(=O)[C@@H]3C2)nc1	-7.5
CC(C)CNC(=O)[C@H]1CCS(=O)(=O)[C@@H]2CN(c3ncccn3)C[C@H]12	-10.6
CC(=O)N(C)Cc1ncn2c1CN(C(=O)C1CCCO1)CCC2 (stereo not given)	-5.86
CC(=O)N(C)Cc1ncn2c1CN(C(=O)CC1CC1)CCC2	-9.44
O=C([C@@H]1CCS(=O)(=O)[C@@H]2CN(c3ncccn3)C[C@@H]21)N1CCOCC1	-1.98
Cc1nc(N2CCCC2)nc2c1CCN(C(=O)c1ccoc1C)CC2	1.32
Cc1cc(C(=O)N2CCc3nc(N4CCCC4)nc(C)c3CC2)c(C)o1	-7.18
CN(C)CC(=O)N1CCc2sc(C(=O)N3CCOCC3)cc21	-0.909
CN(C)CC(=O)N1CCc2sc(C(=O)N3CCN(C)CC3)cc21	-2.73
c1cc(CN2CC[C@@H]3CN(c4cncnc4)C[C@@H]3C2)ccn1	-6.08
O=C1N(c2ccsc2)CCC12CCCN(c1ccccn1)C2 (stereo not given)	5.29
CCc1ncnc2c1CCN(S(=O)(=O)CC)CC2	-7.89
Cc1nc(CN2C[C@@H]3CN(C(=O)c4ccncc4)C[C@@H]3C2)cs1	-9.65
O=C(NCC1CC1)C1CN(C(=O)NC2CCCC2)Cc2cncn2C1 (stereo not given)	-6.07
CCOCC(=O)N1CCC2(CC1)CC(c1ccccc1)CO2 (stereo not given)	-2.96
CCN(CC)Cc1cc(=O)n2c(n1)CN(C(=O)c1ccc[nH]1)CCC2	-4.87
COCC1CN(S(=O)(=O)c2cccc(F)c2)Cc2nccn2C1 (stereo not given)	-7.05
O=c1cc(CN2CCCC2)nc2n1CCCN(CC1CC1)C2	20.8
CC(C)n1c2ccccc2c2c1cc(C(=O)N(C)C)n2C	16.4
CC(C)n1c2ccccc2c2c1cc(C(=O)O)n2C(=O)N(C)C	-2.89
CC(=O)N1CCC2(CCN(CC3CCOC3)C2)CC1 (stereo not given)	-1.33
O=C([C@@H]1CCCO1)N1CCOCC2(CCN(Cc3cccnc3)C2)C1 (stereo not given in full)	0.333

Structure (SMILES)	cytotoxicity at 70.5 h [%]
CC(C)[C@H]1CN(Cc2nccn2C)C[C@@H]1NC(=O)CCS(C)(=O)=O	-5.68
CCc1cc(N(C)Cc2ccnc(C)c2)n2nc(C)c(C)c2n1	40.9
O=C(CSCC1CC1)N1CCC2(CCCN(C3CCOCC3)C2=O)C1 (stereo not given)	-6.7
OCC1(Cc2ccccc2F)CCCN(c2ccc3ccccc3n2)C1 (stereo not given)	-1.23
CC(C)c1cc(NC(CO)CO)n2nccc2n1	-10.2
COc1ccc(C2(C(=O)N3CC[C@@]4(O)CCNC[C@H]4C3)CCCC2)cc1	17.8
CCN(Cc1nccs1)Cc1cc(Cl)ccc1OC	2.82
CC(CN1CCCCCC1)NCc1cc(-c2ccco2)on1 (stereo not given)	-12.2
CN1CCN(Cc2cnn(-c3ccccc3Cl)c2)[C@H]2CS(=O)(=O)C[C@H]21	-5.22
Cc1noc(C)c1CCCNC(=O)Nc1ccc2c(c1)COC2	7.04
Cc1nc[nH]c1CN1CCN(C(=O)C2CC2)[C@H]2CS(=O)(=O)C[C@H]21	-12.6
Cc1c(C(=O)NCC2CCN(C)C2)n(C)c2c(C)cccc12 (stereo not given)	-7.34
Cc1nc(CN2CCN(c3nc4c(s3)c(C)nn4C)CC2)cs1	-3.02
Cc1nn(C)c(C)c1CN(C)c1nc(C2CCCC2)nc2c1cnn2C	8.68
CS(=O)(=O)N1CC[C@@H]2[C@@H](CCC(=O)N2CCC2=CCCCC2)C1	16.1
Cn1ccnc1SCCNC(=O)Cn1cnc2ccccc2c1=O	1.77
Cc1cc2ccccc2n1CCC(=O)NCCS(C)(=O)=O	-10.9
CCC(CO)N(Cc1cccc(O)c1)Cc1ccccc1C (stereo not given)	-5.23
O=C(CCn1ccccc1=O)N1CCCC(COc2ccc(F)cc2)C1 (stereo not given)	-7.1
CCOc1ccccc1CC(=O)N1C[C@@H](C(=O)O)[C@H](C2CC2)C1	-1.88
CN1CCC(CNC(=O)c2ccc3cccc(Cl)c3n2)C1 (stereo not given)	-6.3
CCn1nc(C)c(C(C)NC(=O)c2cnc(N(C)C)nc2C)c1C (stereo not given)	1.08

Structure (SMILES)	cytotoxicity at 70.5 h [%]
CCN(C)C[C@@H]1CN(C(=O)c2cc(-c3ccc(F)cc3)n[nH]2)C[C@@H]1CO	-4.68
CC(C)[C@@H]1CN(C(=O)NCc2ccco2)C[C@H]1N(C)C	-5.48
CN(CCO)C[C@@H]1CN(C2CCN(c3ccccc3Cl)CC2)C[C@@H]1CO	-10.1
CCOc1ccc(Cl)cc1C(C(=O)O)N1CCOCC1 (stereo not given)	-4.12
CC(C)c1cc(NCC2(N(C)C)CCCC2)ncn1	-2.85
CN(C)CCNC(=O)CCC1CCN(C(=O)c2ccc(Cl)cc2O)CC1	-8.44
COc1ccc(C(=O)N2CCC(Oc3cccc(C)c3)(C(=O)O)CC2)o1	5.99
COc1cccc(CN(C)C(C)c2ccon2)c1OCCn1ccnc1 (stereo not given)	-19.9
Cc1cccn2c(CC(=O)N3CCC(CCn4cccn4)CC3)cnc12	13.1
COCCN(C)C(C(=O)O)c1ccc(Cl)c(F)c1 (stereo not given)	-5.39
Cn1cc(C(=O)NCc2cncc3c2CCNC3)cn1	23.2
CC(C)N(C)Cc1cncc2c1CCN(Cc1cccs1)C2	-3.46
COCCN1CCOCC2(C1)CN(C(=O)c1conc1C)CCO2 (stereo not given)	-1.78
CCN1C(=O)CCCC12CCCN(C(=O)c1ccncc1F)C2 (stereo not given)	-2.27
c1cnc(N2CC[C@@H](OCC3CC3)[C@@H]2Cc2cccnc2)nc1	-4.73
Cn1ccc(C(=O)N2CCOC3(COCCN(CC4CC4)C3)C2)n1 (stereo not given)	-3.98
CCOC(=O)[C@]12CCCN(Cc3ccco3)C[C@H]1CN(S(C)(=O)=O)C2	-4.24
CC1c2ncc(Cn3cccn3)n2CCN1S(C)(=O)=O (stereo not given)	19.8
O=S(=O)(c1cccs1)N1Cc2nc(CN3CCCC3)oc2C1	-6.48
CCN(CC)Cc1nc2c(o1)CN(S(=O)(=O)c1cccs1)C2	-10.4
N#Cc1ccc(N2CCCC3(CCC(=O)N3CC3CC3)CC2)nc1 (stereo not given)	-0.642
O=C(NCc1cc(=O)n2c(n1)CN(CC1CC1)CCC2)c1ccsc1	17.3

Structure (SMILES)	cytotoxicity at 70.5 h [%]
O=C(C1CCOC1)N1C[C@H]2CN(Cc3cccnc3)C(=O)[C@H]2C1 (stereo not given in full)	11.7
Cc1nc(N2CCCC2)nc2c1CCN(Cc1nccn1C)CC2	-10.2
Cc1cc(CN2CCC3(CC2)COC(COCC2CC2)C3)no1 (stereo not given)	-9.77
COCCN1CCCn2c(nc(CNS(C)(=O)=O)cc2=O)C1	-6.97
COCCN1CCC(c2nc3ccc(NC4CCC4)cn3n2)CC1	0.236
O=C(Cc1ccncc1)N1CCC2(CC1)CC(c1ccccc1)CO2 (stereo not given)	19.4
CCS(=O)(=O)N1CCC2(CC1)CN(CC1CCOC1)c1ccccc12 (stereo not given)	26
c1ccc2c(c1)N(CC1CCOC1)CC21CCN(c2cnccn2)CC1 (stereo not given)	-0.723
Cc1noc(C)c1CN1CCc2ncnc(-c3cnn(C)c3)c2CC1	-8.16
c1cncc(OC[C@@]23CCC[C@@H]2CN(C2CCOCC2)C3)c1	-1.53
CCN(CC)Cc1cn2c(n1)CN(Cc1c(C)noc1C)CC2	0.0103
Cc1noc(C)c1CN1CCn2cc(CN3CCCC3)nc2C1	-4.15
Cn1cc(CN2CCc3ccc(=O)n(Cc4ccncc4)c3CC2)cn1	-7
CN(C)CCN1C(=O)CCCC12CCCN(C(=O)c1ccncc1)C2 (stereo not given)	-3.49
c1cncc(OC[C@]23COC[C@H]2CN(C2CCC2)C3)c1	-1.17
N#Cc1ccc(N2CCC3(CCC(=O)N3Cc3cccnc3)CC2)nc1	-5.74
N#Cc1ccc(N2CCC3(CCC(=O)N3Cc3ccncc3)CC2)nc1	-6.82
CC(C)N1CCC2(CC1)C(=O)N(CCN(C)C)c1ccccc12	-6.47
COCCN1CCO[C@H]2CN(Cc3cc[nH]n3)C[C@H]21	-7.3
COCCN1CCN(c2cccc(C)n2)Cc2ccc(C)nc21	2.66
Cc1nc(CN2C[C@@H]3CN(C(=O)Cc4ccccn4)C[C@@H]3C2)cs1	-4.03
Cn1nccc1-c1nnn2c1COCC(CNCC1CC1)C2 (stereo not given)	-2.84
